Legend:
[1] = Carotenoid ester content in plasma, back skin and abdominal fat of broilers (HPLC); type: in vivo, broiler chickens (Ross 308, Ross 508)
Outline: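 Ross 308/508 broilers, raised on low-carotenoid basal diet (<2 mg xanthophylls/kg) to day 15 or 22, then fed pigment-supplemented diet for three weeks; plasma sampled day 42, back skin and abdominal fat pooled per group at slaughter on day 44. Carotenoid esters quantified by normal-phase HPLC (0.5% acetone in n-hexane) calibrated with all-E ethyl β-apo-8′-carotenoate; Z-isomers corrected by factor 1.4.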

[2] = tested on: skin and shanks of broilers; test: Reflectance colorimetry and visual classification of skin and shanks of broilers; type: in vivo, broiler chickens (Ross 308, Ross 508); parameters: key to Shanks Visual Classification / Skin Visual Classification: −; (+); +; ++ = good color; o = orange; conditions: for Shanks Chroma C*ab % of Controls / Shanks Color Hue h*ab % of Controls / Skin Chroma C*ab % of Controls / Skin Color Hue h*ab % of Controls / Shanks Chroma C*ab Value / Shanks Color Hue h*ab Value / Shanks Visual Classification / Skin Chroma C*ab Value / Skin Color Hue h*ab Value / Skin Visual Classification: dry carcasses
Outline: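 Ross broilers were fed a low-carotenoid basal diet (<2 mg xanthophylls/kg), then received pigment-supplemented diet for three weeks and were slaughtered on day 44. Back-skin colour (mean of three points) and shank colour (single reading) were measured by Minolta chromameter (D65, 0°) and reported as CIE L*a*b*, h* and C*, averaged over ten birds (5 male, 5 female).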

[3] = average over doses, in relation to the controls (CAROPHYLL Yellow) of the same trial, Table 3
[4] = trial MC-24/99, 20 mg/kg feed, in relation to the controls of the same trial
[5] = trial MC-24/99, 30 mg/kg feed, in relation to the controls of the same trial

Analytical Content as Equivalent of Ethyl β-apo-8′-carotenoate Fat % [1, 3]: 113%
Analytical Content as Equivalent of Ethyl β-apo-8′-carotenoate Plasma % [1, 3]: 103%
Analytical Content as Equivalent of Ethyl β-apo-8′-carotenoate Skin % [1, 3]: 198%
Analytical Content as Equivalent of Ethyl β-apo-8′-carotenoate Skin % ([1]; average over doses, in relation to the controls (CAROPHYLL Yellow) of the same trial, Table 3, listed as tert. Butyl β-apo-8′-carotenoate): 189%
concentrations determined as equivalents of the ethyl β-apo-8′-carotenoate, in the skin ([1]; in comparison to the other 12 tested carotenoid esters): substantially higher
Analytical Content as Equivalent of Ethyl β-apo-8′-carotenoate Fat ([1]; trial MC-24/99, 20 mg/kg feed): 3.7 mg/kg
Analytical Content as Equivalent of Ethyl β-apo-8′-carotenoate Plasma ([1]; trial MC-24/99, 20 mg/kg feed): 12.2 mg/kg
Analytical Content as Equivalent of Ethyl β-apo-8′-carotenoate Skin ([1]; trial MC-24/99, 20 mg/kg feed): 5.4 mg/kg
Analytical Content as Equivalent of Ethyl β-apo-8′-carotenoate Fat % [1, 4]: 119%
Analytical Content as Equivalent of Ethyl β-apo-8′-carotenoate Plasma % [1, 4]: 117%
Analytical Content as Equivalent of Ethyl β-apo-8′-carotenoate Skin % [1, 4]: 194%
Analytical Content as Equivalent of Ethyl β-apo-8′-carotenoate Fat ([1]; trial MC-24/99, 30 mg/kg feed): 4.6 mg/kg
Analytical Content as Equivalent of Ethyl β-apo-8′-carotenoate Plasma ([1]; trial MC-24/99, 30 mg/kg feed): 14.1 mg/kg
Analytical Content as Equivalent of Ethyl β-apo-8′-carotenoate Skin ([1]; trial MC-24/99, 30 mg/kg feed): 6.4 mg/kg
Analytical Content as Equivalent of Ethyl β-apo-8′-carotenoate Fat % [1, 5]: 107%
Analytical Content as Equivalent of Ethyl β-apo-8′-carotenoate Plasma % [1, 5]: 88%
Analytical Content as Equivalent of Ethyl β-apo-8′-carotenoate Skin % [1, 5]: 184%
Compound: CC(C=CC=C(C)C=CC1=C(C)CCCC1(C)C)=CC=CC=C(C)C=CC=C(C)C(=O)OC(C)(C)C [compound (18), tert. butyl beta-apo-8′-carotenoate]
Shanks Chroma C*ab % of Controls ([2]; average over doses, Table 5): 113%
Shanks Color Hue h*ab % of Controls ([2]; average over doses, Table 5): 100%
Skin Chroma C*ab % of Controls ([2]; average over doses, Table 5): 115%
Skin Color Hue h*ab % of Controls ([2]; average over doses, Table 5): 105%
Shanks Chroma C*ab % of Controls ([2]; trial MC-24/99, 20 mg/kg feed): 114%
Shanks Chroma C*ab Value ([2]; trial MC-24/99, 20 mg/kg feed): 63
Shanks Color Hue h*ab % of Controls ([2]; trial MC-24/99, 20 mg/kg feed): 100%
Shanks Color Hue h*ab Value ([2]; trial MC-24/99, 20 mg/kg feed): 84
Shanks Visual Classification ([2]; trial MC-24/99, 20 mg/kg feed): +
Skin Chroma C*ab % of Controls ([2]; trial MC-24/99, 20 mg/kg feed): 116%
Skin Chroma C*ab Value ([2]; trial MC-24/99, 20 mg/kg feed): 38
Skin Color Hue h*ab % of Controls ([2]; trial MC-24/99, 20 mg/kg feed): 107%
Skin Color Hue h*ab Value ([2]; trial MC-24/99, 20 mg/kg feed): 81
Skin Visual Classification ([2]; trial MC-24/99, 20 mg/kg feed): +
Shanks Chroma C*ab % of Controls ([2]; trial MC-24/99, 30 mg/kg feed): 111%
Shanks Chroma C*ab Value ([2]; trial MC-24/99, 30 mg/kg feed): 70
Shanks Color Hue h*ab % of Controls ([2]; trial MC-24/99, 30 mg/kg feed): 99%
Shanks Color Hue h*ab Value ([2]; trial MC-24/99, 30 mg/kg feed): 82
Shanks Visual Classification ([2]; trial MC-24/99, 30 mg/kg feed): ++
Skin Chroma C*ab % of Controls ([2]; trial MC-24/99, 30 mg/kg feed): 113%
Skin Chroma C*ab Value ([2]; trial MC-24/99, 30 mg/kg feed): 41
Skin Color Hue h*ab % of Controls ([2]; trial MC-24/99, 30 mg/kg feed): 102%
Skin Color Hue h*ab Value ([2]; trial MC-24/99, 30 mg/kg feed): 80
Skin Visual Classification ([2]; trial MC-24/99, 30 mg/kg feed): ++
chroma C*a*b* values in the skin and in the shanks ([2]; versus the control): substantially enhanced
color hue h*a*b* in the skin and in the shanks ([2]; versus the control): not significantly changed
effectiveness in terms of concentration in the skin, and color intensity (chroma C*a*b*) in the skin and shanks ([2]; versus the control): significantly more effective

Reference: US6896895B2, “Carotenoid esters, carotenoid-enriched feeds, and methods of pigmenting foods and foodstuffs” (DSM IP Assets B.V., priority 2000, dated 2005)
